Measured values published in patent US5508450A, “Benzopyran derivatives” (Ono Pharmaceutical Co., Ltd., priority 1989, dated 1996).
Where a name gives a salt, the structure may show the parent alone.

Experiments:
[1] = tested on: lipid peroxide formation in rat liver homogenate; experiment: Antioxiding effect: inhibitory activity against formation of peroxidized fat (lipid peroxide by TBA method); type: biochemical, Male Sprague Dawley rat; settings: 200 μM FeCl2, 10% rat liver homogenate, 37° C., 1 hr
Procedure: The antioxiding effect of the compounds of the present invention has confirmed by the screening system which examines inhibitory activity against formation of peroxidized fat mentioned below. Male Sprague Dawley rat was fasted for 12 hrs (overnight) before experiments, and was anesthetized with ether. Rat liver was perfused with ice-cold 0.9% NaCl via the portal vein, and promptly excised. 10% Liver homogenates were prepared in ice-cold 1.15% KCl. The reaction was started by adding 200 μM FeCl2 to the liver homogenate ([…]), and incubated at 37° C. for 1 hr. Lipid peroxide was measured by the TBA method according to the method of Ohkawa (See Analytical Biochemistry,95, 351 (1979)). The compounds of the present invention were added before incubation. And the efficacy thereof was examined and calculated IC50 values thereof.

[2] = tested on: Lysozyme (dimer formation with fructose); experiment: Inhibitory activity on Maillard reaction: formation of lysozyme dimer (lysozyme + fructose, SDS-PAGE, densitometer); type: biochemical; settings: lysozyme 10 mg/ml, fructose 100 mM, 0.2M sodium phosphate buffer pH 7.4, 37° C., 3 days
Procedure: The inhibitory activity on Maillard reaction of the compounds of the present invention has confirmed by the screening system mentioned below. Lysozyme (10 mg/ml) and fructose (100 mM) were dissolved in 0.2M sodium phosphatic buffer solution (PH 7.4). The solution was incubated at a temperature of 37° C. for 3 days. A given volume of the reaction solution was separated using SDS-PAGE by the electrophoresis. After the electrophoresis, the SDS-PAGE was dyed by 0.2% Coomassie Brilliant Blue R-250 and then the dimer was determined by densitometer. The compounds of the present invention were added before incubation and the inhibitory activity of them against the formation of the dimer was examined in various concentrations and IC50 values were calculated.

Structure (SMILES): Cc1c(C)c2c(c(C)c1O)CCC(C)(CCNC(=O)C1CCC(CNC(=N)N)CC1)O2 (stereo not shown) [2 (a), N-[2-(6-hydroxy-2,4,7,8-tetramethyl-3,4-dihydro-2H-benzo[1,2-b]pyran-2-yl)-ethyl]-4-quanidinomethyl-cyclohexanecarboxamide hydrochloride]
- IC50 [1]: 0.78 µM

Structure (SMILES): Cc1c(C)c2c(c(C)c1O)CCC(C)(CCOC(=O)CCCCNC(=N)N)O2 (stereo not shown) [1 (c), 2-(6-hydroxy-2,5,7,8-tetramethyl-3,4-dihydro-2H-benzo[1,2-b]pyran-2-yl)ethyl5-quanidinopentanoate hydrochloride]
- IC50 [1]: 0.8 µM

Structure (SMILES): Cc1c2c(c3ccccc3c1O)OC(C)(CCOC(=O)c1ccc(NC(=N)N)cc1)CC2 (stereo not shown) [1 (e), 2-(2,5-dimethyl-6-hydroxy-3,4-dihydro-2H-naphtho[1,2-b]pyran-2-yl)ethyl 4-quanidinobenzoatehydrochloride]
- IC50 [2]: 50 µM
- IC50 [1]: 0.16 µM

Structure (SMILES): Cc1c(C)c2c(c(C)c1O)CCC(C)(CCOC(=O)CCc1ccc(NC(=N)N)cc1)O2 (stereo not shown) [1 (g), 2-(6-hydroxy-2,5,7,8-tetramethyl-3,4-dihydro-2H-benzo[1,2-b]pyran-2-yl)ethyl3-(4-quanidinophenyl)-propionate hydrochloride]
- IC50 [1]: 0.9 µM

Structure (SMILES): Cc1c(C)c2c(c(C)c1O)CCC(C)(CCOC(=O)c1ccc(NC(=N)N)cc1)O2 (stereo not shown) [1 (a), 2-(6-hydroxy-2,5,7,8-tetramethyl-3,4-dihydro-2H-benzo[1,2-b]pyran-2-yl)ethyl4-quanidinobenzoate hydrochloride]
- IC50 [2]: 200 µM
- IC50 [1]: 0.54 µM

Structure (SMILES): Cc1c2c(c3ccccc3c1O)OC(C)(CCOC(=O)/C=C/c1ccc(NC(=N)N)cc1)CC2 (stereo not shown) [1 (l), 2-(2,5-dimethyl-6-hydroxy-3,4-dihydro-2H-naphtho[1,2-b]pyran-2-yl)ethyl 4-quanidinocinnamatehydrochloride]
- IC50 [1]: 0.38 µM

Structure (SMILES): Cc1c(C)c2c(c(C)c1O)CCC(C)(CCOC(=O)C1CCC(CNC(=N)N)CC1)O2 (stereo not shown) [1 (b), 2-(6-hydroxy-2,5,7,8-tetramethyl-3,4-dihydro-2H-benzo[1,2-b]pyran-2-yl)ethyl4-quanidinomethylcyclohexane carboxylatehydrochloride]
- IC50 [1]: 0.78 µM

Structure (SMILES): Cc1c(C)c2c(c(C)c1O)CCC(C)(CCNC(=O)c1ccc(CNC(=N)N)cc1)O2 (stereo not shown) [2 (b), N-[2-(6-hydroxy-2,4,7,8-tetramethyl-3,4-dihydro-2H-benzo[1,2-b]pyran-2-yl)-ethyl]-4-quanidinomethyl-benzamide hydrochloride]
- IC50 [1]: 0.47 µM

Structure (SMILES): Cc1c(C)c2c(c(C)c1O)CCC(C)(CCOc1ccc(NC(=O)c3cccc(NC(=N)N)c3)cc1)O2 (stereo not shown) [7 (a), N-[4-[2-(6-hydroxy-2,5,7,8-tetramethyl-3,4-dihydro-2H-benzo[1,2-b]pyran-2-yl)-ethoxy]phenyl]-3-guanidino-benzamide hydrochloride]
- IC50 [2]: 200 µM

Structure (SMILES): Cc1c(C)c2c(c(C)c1O)CCC(C)(CCSc1ccc(NC(=O)CSc3ccc(NC(=N)N)cc3)cc1)O2 (stereo not shown) [7 (t), N-[4-[2-(6-hydroxy-2,5,7,8-tetramethyl-3,4-dihydro-2H-benzo[1,2-b]pyran-2-yl)-ethylthio]phenyl]-4-guanidinophenylthioacetamidehydrochloride]
- IC50 [2]: 17 µM

Structure (SMILES): Cc1c2c(c3ccccc3c1O)OC(C)(CCCCSc1ccc(NC(=O)c3ccc(NC(=N)N)cc3)cc1)CC2 (stereo not shown) [9 (j), N-[4-[4-(2,5-dimethyl-6-hydroxy-3,4-dihydro-2H-naphtho[1,2-b]pyran-2-yl)-butylthio]phenyl]-4-guanidinobenzamidehydrochloride]
- IC50 [2]: 4.8 µM

Structure (SMILES): Cc1c(C)c2c(c(C)c1O)CCC(C)(CCOCCNC(=O)/C=C/c1ccc(NC(=N)N)cc1)O2 (stereo not shown) [Example 21, N-[2-[2-(6-hydroxy-2,5,7,8-tetramethyl-3,4-dihydro-2H-benzo[1,2-b]pyran-2-yl)ethoxy]ethyl]-4-guanidinocinnamamide hydrochloride]
- IC50 [2]: 220 µM

Structure (SMILES): Cc1c(C)c2c(c(C)c1O)CCC(C)(CCOc1ccc(NC(=N)N)cc1)O2 (stereo not shown) [Example 5, 4-guanidinophenyl 2-(6-hydroxy-2,5,7,8-tetramethyl-3,4-dihydro-2H-benzo[1,2-b]pyran-2-yl)ethyl ether hydrochloride]
- IC50 [2]: 320 µM

Structure (SMILES): CCOC(=O)c1cc(NC(=N)N)cc(C(=O)Nc2ccc(OCCCCC3(C)CCc4c(C)c(O)c(C)c(C)c4O3)cc2)c1 (stereo not shown) [9 (m), N-[4-[4-(6-hydroxy-2,5,7,8-tetramethyl-3,4-dihydro-2H-benzo[1,2-b]pyran-2-yl)-butoxy]phenyl]-3-guanidino-5-ethoxycarbonylbenzamidehydrochloride]
- IC50 [2]: 9 µM

Structure (SMILES): Cc1c(C)c2c(c(C)c1O)CCC(C)(CCCCSc1ccc(NC(=N)N)cc1)O2 (stereo not shown) [10 (e), 4-guanidinophenyl 4-(6-hydroxy-2,5,7,8-tetramethyl-3,4-dihydro-2H-benzo[1,2-b]pyran-2-yl)butyl thioether hydrochloride]
- IC50 [2]: 36 µM

Structure (SMILES): Cc1c2c(c3ccccc3c1O)OC(C)(CCOC(=O)c1cccc(NC(=N)N)c1)CC2 (stereo not shown) [1 (k), 2-(2,5-dimethyl-6-hydroxy-3,4-dihydro-2H-naphtho[1,2-b]pyran-2-yl)ethyl 3-quanidinobenzoatehydrochloride]
- IC50 [1]: 0.44 µM

Structure (SMILES): Cc1c2c(c3ccccc3c1O)OC(C)(CCOc1ccc(NC(=O)/C=C/c3ccc(NC(=N)N)cc3)cc1)CC2 (stereo not shown) [7 (n), N-[4-[2-(2,5-dimethyl-6-hydroxy-3,4-dihydro-2H-naphtho[1,2-b]pyran-2-yl)-ethoxy]phenyl]-4-guanidino-cinnamamide hydrochloride]
- IC50 [2]: 10 µM

Structure (SMILES): Cc1c(C)c2c(c(C)c1O)CCC(C)(CCOC(=O)c1ccc(CNC(=N)N)cc1)O2 (stereo not shown) [Example 1, 2-(6-hydroxy-2,5,7,8-tetramethyl-3,4-dihydro-2H-benzo[1,2-b]pyran-2-yl)ethyl 4-guanidinomethylbenzoate hydrochloride]
- IC50 [1]: 0.6 µM

Structure (SMILES): Cc1c(C)c2c(c(C)c1O)CCC(C)(CCCCNC(=O)Nc1cccc(NC(=N)N)c1)O2 (stereo not shown) [Example 12, 1-[4-(6-hydroxy-2,5,7,8-tetramethyl-3,4-dihydro-2H-benzo[1,2-b]pyran-2-yl)butyl]-3-(3-guanidinophenyl)urea hydrochloride]
- IC50 [2]: 200 µM

Structure (SMILES): Cc1c(C)c2c(c(C)c1O)CCC(C)(CCOc1ccc(NC(=O)c3cccc(NC(=N)N)c3)cc1C(F)(F)F)O2 (stereo not shown) [7 (m), N-[4-[2-(6-hydroxy-2,5,7,8-tetramethyl-3,4-dihydro-2H-benzo[1,2-b]pyran-2-yl)-ethoxy]-3-trifluoromethyl-phenyl]-3-guanidinobenzamidehydrochloride]
- IC50 [2]: 12 µM

Structure (SMILES): Cc1c(C)c2c(c(C)c1O)CCC(C)(CCNC(=O)/C=C/c1ccc(NC(=N)N)cc1)O2 (stereo not shown) [2 (e), N-[2-(6-hydroxy-2,5,7,8-tetramethyl-3,4-dihydro-2H-benzo[1,2-b]pyran-2-yl)-ethyl]4-quanidinocinnam-amide hydrochloride]
- IC50 [2]: 190 µM

Structure (SMILES): Cc1c(C)c2c(c(C)c1O)CCC(C)(CCOCCNC(=N)NN)O2 (stereo not shown) [Example 26, 2-(3-aminoguanidino)ethyl 2-(6-hydroxy-2,5,7,8-tetramethyl-3,4-dihydro-2H-benzo[1,2-b]pyran-2-yl)ethyl ether hydrochloride]
- IC50 [2]: 270 µM

Structure (SMILES): Cc1c(C)c2c(c(C)c1O)CCC(C)(CCOc1ccc(CCCOc3ccc(NC(=N)N)cc3)cc1)O2 (stereo not shown) [27 (f), 4-guanidinophenyl 3-[4-[2-(6-hydroxy-2,5,7,8-tetramethyl-3,4-dihydro-2H-benzo[1,2-b]-pyran-2-yl)ethoxy]phenyl]-propyl ether hydrochloride]
- IC50 [2]: 5.6 µM

Structure (SMILES): CCOC(=O)c1cc(NC(=N)N)cc(C(=O)NCCC2(C)CCc3c(C)c(O)c(C)c(C)c3O2)c1 (stereo not shown) [Example 14, N-[2-(6-hydroxy-2,5,7,8-tetramethyl-3,4-dihydro-2H-benzo[1,2-b]pyran-2-yl)ethyl]-3-ethoxycarbonyl-5-guanidinobenzamide hydrochloride]
- IC50 [2]: 220 µM

Structure (SMILES): Cc1c(C)c2c(c(C)c1O)CCC(C)(CCOC(=O)c1cccc(NC(=N)N)c1)O2 (stereo not shown) [1 (i), 2-(6-hydroxy-2,5,7,8-tetramethyl-3,4-dihydro-2H-benzo[1,2-b]pyran-2-yl)ethyl3-quanidinobenzoate hydrochloride]
- IC50 [2]: 100 µM

Structure (SMILES): Cc1c(C)c2c(c(C)c1O)CCC(C)(CCOCc1ccc(CNC(=N)NN)cc1)O2 (stereo not shown) [Example 4, 4-(3-aminoguamidinomethyl)benzyl 2-(6-hydroxy-2,5,7,8-tetramethyl-3,4-dihydro-2H-benzo[1,2-b]pyran-2-yl)ethyl ether hydroiodide]
- IC50 [2]: 150 µM

Structure (SMILES): Cc1c(C)c2c(c(C)c1O)CCC(C)(CCCCNC(=O)COc1ccc(NC(=N)N)cc1)O2 (stereo not shown) [22 (a), N-[4-(6-hydroxy-2,5,7,8-tetramethyl-3,4-dihydro-2H-benzo[1,2,-b]pyran-2-yl)butyl]-2-(4-guanidinophenoxy)acetamide hydrochloride]
- IC50 [2]: 500 µM

Structure (SMILES): Cc1c(C)c2c(c(C)c1O)CCC(C)(CCCCOc1ccc(NC(=N)N)cc1)O2 (stereo not shown) [Example 10, 4-guanidinophenyl 4-(6-hydroxy-2,5,7,8-tetramethyl-3,4-dihydro-2H-benzo[1,2-b]pyran-2-yl)butyl ether hydrochloride]
- IC50 [2]: 75 µM

Structure (SMILES): Cc1c2c(c3ccccc3c1O)OC(C)(CCNC(=O)c1cccc(NC(=N)N)c1)CC2 (stereo not shown) [2 (f), hydrochloride]
- IC50 [2]: 150 µM
